Patent US11827690B2, “ApoC-II mimetic peptides” (THE UNITED STATES OF AMERICA, as represented by the …, priority 2017, dated 2023)
Non-standard residues stand in square brackets, D forms with d. No end group written: not given here. *: point of attachment. Stearoyl = CCCCCCCCCCCCCCCCCC(=O)*; Nle = CCCC[C@H](N)C(=O)O

How the values were obtained:
bovine LPL [1] = target: T1, bovine LPL (Bos taurus, UniProt P11151); experiment: in vitro LPL assay using apoC-II deficient patient sera as substrate; assay type: biochemical; details: for TG clearance ability compared with Delta4: FIG. 10; for TG hydrolysis: concentrations from 100 pM to 10 μM, FIG. 12
T1 sequence (P11151 29-478): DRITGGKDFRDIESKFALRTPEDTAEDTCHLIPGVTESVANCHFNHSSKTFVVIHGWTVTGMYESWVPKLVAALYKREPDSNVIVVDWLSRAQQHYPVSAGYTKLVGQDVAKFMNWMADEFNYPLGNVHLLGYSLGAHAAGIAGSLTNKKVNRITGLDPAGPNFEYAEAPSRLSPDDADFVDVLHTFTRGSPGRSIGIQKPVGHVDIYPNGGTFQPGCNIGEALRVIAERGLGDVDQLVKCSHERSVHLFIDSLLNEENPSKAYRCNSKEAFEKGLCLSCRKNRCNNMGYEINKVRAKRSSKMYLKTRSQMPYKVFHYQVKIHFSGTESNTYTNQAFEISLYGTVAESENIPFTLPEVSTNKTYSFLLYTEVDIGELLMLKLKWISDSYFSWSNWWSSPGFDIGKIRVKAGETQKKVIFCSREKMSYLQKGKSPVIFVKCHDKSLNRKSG
Procedure: (§1) Preparation of LPL: frozen stock of 10 μL of 0.5 mg/mL bovine LPL was used and diluted 1:100 (10 μL+990 μL of PBS).
Preparation of 20% Intralipid: 2000 mg/dL TG Intralipid was used to prepare 3 mg/dL TG Intralipid by diluting 1.5 μL of the stock with 998.5 μL PBS, or by diluting the stock 1:10 first and then mixing 15 μL of the diluted stock with 985 μL PBS. When apoC-II deficient human serum was used as a substrate, a frozen 10 μL aliquot of 1711 mg/dL (TG) was diluted by adding 990 μL PBS (1:100 dilution).
(§2) Preparation of free fatty acid (NEFA) assay: NEFA reagents were purchased from Wako Diagnostics, Wako Life Sciences, Inc. Reagent A was prepared by mixing Coloring Reagent A with Solvent A (225 μL per well). Reagent B was prepared by mixing Coloring Reagent B with Solvent B (75 μL per well). 5 nmoL oleic acid standard was prepared by diluting 20 μL of 1 mM oleic acid stock (WAKO NEFA standard solution) with 180 μL of 0.2% BSA.
(§3) LPL activity assay: 10 μL of Intralipid, human plasma sample, or mouse plasma sample was added in each well using repeater pipette. 10 μL (or 15 μL in the wells with no LPL control) of PBS and 10 μL of 1% BSA was added in each well using repeater pipette. 10 μL of peptides were added to corresponding wells in vertical triplicates (lowest concentration is on a left, highest is on the right). The plate was spun down at 1000 RPM for 10 seconds to mix and to remove the solutions from the wall of each well. The plate was put on ice and 5 μL of LPL was added using repeater pipette. The plate was spun down again at 1000 RPM for 10 seconds. The plate was covered and put back on ice for an incubation of 30 min. The plate was then moved to 37° C. and incubated for 1 hour.
(§4) Free fatty acids (NEFA) assay: 45 μL of 5 nmoL standard and 0 nmoL control (0.2% BSA) were added to corresponding wells. 225 μL of reagent A was added in each well using the reagent tray and 12-channel pipette. The plate was incubated for 10 min before 75 μL of reagent B was added to each well using the reagent tray and 12-channel pipette. The plate was not covered due to the high volume. The absorbance at 550 nm and 660 nm was measured.

C57BL/6 mice (wild-type) = experiment: post-prandial serum TG in C57BL/6 mice after oral gavage with vegetable oil; assay type: in vivo; details: intraperitoneally injected 30 min before gavage, FIG. 20
Procedure: (§5) C57Bl/6 mice (wild-type), apoC-II knockout (apoC-II KO) mice, and apoC-III transgenic mice were used for in vivo study. The C57Bl/6 mice (wild-type) were purchased from Taconic Biosciences Inc. The apoC-II KO mice were created as described in Sakurai et al., J Pharmacol Exp Ther 356:341-353, 2016. The apoC-III transgenic mice were generated by overexpressing human apoC-III in C57Bl/6 mice. See Qu et al., J. Lipid Res. 48:1476-1487, 2007.
(§6) Mice were fasted overnight (approximately 12 hours) before the study and 6 hours during the study, the next day. The apoC-II mimetic peptides were synthetically produced and free of biological contamination (not available as FDA approved compounds/treatment). Peptides were produced and used in sterile conditions and filtered by 0.2 nm filter before injections in a single dose 1-10 μmol/kg body weight (B. W.) administered either subcutaneous injection (S.Q. or S.C.), intraperitoneal injection (I.P.) or intravenous injection (I.V.) (in a sterile, pharmaceutical grade PBS solution at a volume ≤200 μL) as described in Sakurai et al., J Pharmacol Exp Ther 356:341-353, 2016.
(§7) In some experiments, each animal received 20% Intralipid (FDA approved, Fresenius Kabi, Uppsala, Sweden) in a single dose either by oral gavage (using special sterile single-use non-toxic animal feeding needles) in a dose 10-20 μL/gram body weight (B.W.) (Tuzcu et al. Drug Chem Toxicol 37: 261-267, 2014; Kusminski et al. Nature Medicine 18: 1539-1549, 2012), or by intraperitoneal injection in a single bolus of 0.1-1.0 mL (Mahadero et al. American J Surgery 164: 45-50, 1992), or by intragastric administration of a dietetic commercially-available liquid oil (food grade vegetable, corn, soy or olive oil) in a single dose 10-20 μL/gram body weight. These oils were a source of TG—when absorbed TG tends to be broken down within 3 h (peak in 30 min) (Kritchevsky Nutritional Biochemistry 6:172-178, 1995). Blood samples (20-30 μL) were obtained from the retro-orbital plexus at time points: −1 h, 0 h, 1 h, 3 h, 6 h and 24 h for measurements of lipids. Mice were returned to metabolic cages after the 6 h time point where the food was put back. Once the study was completed (after 24 hours from the fat administration), mice were euthanized and organs collected.

bovine LPL [2] = target: T1, bovine LPL; experiment: in vitro LPL assay using hypertriglyceridemia patient sera as substrate; assay type: biochemical; details: patient sera TG about 1000 mg/dL to about 1700 mg/dL, FIGS. 15A-D
Procedure: as §1, §2, §3, §4

[3] = tested on: VLDL isolated from human plasma; experiment: ApoC-III displacement study in VLDL isolated from human plasma; assay type: binding; details: SDS PAGE
Procedure: VLDL or chylomicrons isolated from human plasma were incubated with an apoC-II mimetic peptide for 1 hour at 37° C. and washed 3 times with PBS using spin filter with 100 kDa cutoff membrane. […] ApoC-I, apoC-II, apoC-III, and apoE bands were identified by their corresponding size.

apoC-II knockout mice = experiment: plasma lipids of apoC-II knockout mice after peptide injection; assay type: in vivo; details: 0.25 μmol/kg of body weight intraperitoneal, FIG. 24
Procedure: as §5
as §6, with “Peptides were produced and used in sterile conditions and filtered by 0.2 nm filter before injections in a single dose 1-10 μmol/kg body weight (B.” left out

wild-type mice = experiment: serum TG of wild-type mice after Intralipid injection with or without LPL inhibitor Triton WR1339; assay type: in vivo; details: co-injection with Intralipid, 6 h time point
Procedure: as §7
The ability of apolipoprotein mimetic peptides to normalize hypertriglyceridemia in mice treated with an LPL inhibitor, Tyloxapol, in presence of high TG provided by 20% Intralipid, was assessed.
Mice were fasted overnight (approximately 12 hours) before the study and 6 hours during the study, the next day. The apo mimetic peptides were synthetically produced and free of biological contamination (not available as FDA approved compounds/treatment). Peptides were produced and used in sterile conditions and filtered by 0.2 nm filter before injections in a single dose 1-5 μmol/kg B.W. either S.C. or I.P. or I.V. (in a sterile, pharmaceutical grade PBS solution at a volume ≤200 μL). Next, 10% Tyloxapol (Triton WR-1339, T-0307, Sigma-Aldrich) was injected I.V. in a single dose of 5 μL/gram B.W., as described earlier (Zhang Y. L. et al., J Biol Chem. 279: 19362-19374, 2004; Abe C. et al., J. Nutr. 137: 345-350, 2007). […] Finally, each animal received 20% Intralipid (FDA approved, Fresenius Kabi, Uppsala, Sweden) in a single dose either by oral gavage (using special sterile single-use non-toxic animal feeding needles)—in a dose 10-20 μL/gram B.W. (Tuzcu K. et al., Drug Chem Toxicol., 37: 261-267, 2014, Kusminski C. et al., Nature Medicine. 18: 1539-1549, 2012), or by intraperitoneal injection—in a single bolus of 0.1-1.0 mL (Mahadero G. et al., American J Surgery. 164: 45-50, 1992). Blood samples (20-30 μL) were obtained from the retro-orbital plexus at time points: −1 h, 0 h, 1 h, 3 h, 6 h and 24 h for measurements of lipids. Mice were returned to metabolic cages after the 6 h time point where the food was put back. Once the study was completed (after 24 hours from the Intralipid administration), mice were euthanized and organs collected.

DYLKAVFEKLRDLYSKFTPAMSTYTGIFTDQVLSVLKGEE [Delta4b]
TG clearance ability compared with Delta4 (bovine LPL [1]): enhanced the TG clearance ability of the exemplary apoC-II mimetic peptide Delta4 | TG hydrolysis (bovine LPL [1]): promoted TG hydrolysis in a dose-dependent manner | serum TG increase after vegetable oil gavage (C57BL/6 mice (wild-type)): the TG increase was significantly reduced

DYLKAVFEKLRDLYSKKC18TPAMSTYTGIFTDQVLSVLKGEE (DYLKAVFEKLRDLYSKK(Stearoyl)TPAMSTYTGIFTDQVLSVLKGEE) [Delta4b-3]
TG clearance ability compared with Delta4 (bovine LPL [1]): enhanced the TG clearance ability of the exemplary apoC-II mimetic peptide Delta4 | TG hydrolysis (bovine LPL [1]): promoted TG hydrolysis in a dose-dependent manner | serum TG increase after vegetable oil gavage (C57BL/6 mice (wild-type)): the TG increase was significantly reduced

DYLKEVFEKLRDLYEKFTAALSTYTGIFTDQVLSVLKGEE (not fully specified) [Delta6L]
LPL activation (bovine LPL [2]): activated LPL in vitro

DYLKEVFEKLRDLYEKFTAAnLSTYTGIFTDQVLSVLKGEENH2 (DYLKEVFEKLRDLYEKFTAA[Nle]STYTGIFTDQVLSVLKGEE-NH2; N-terminus assumed; SMILES CCCC[C@H](NC(=O)[C@H](C)NC(=O)[C@H](C)NC(=O)[C@@H](NC(=O)[C@H](Cc1ccccc1)NC(=O)[C@H](CCCCN)NC(=O)[C@H](CCC(=O)O)NC(=O)[C@H](Cc1ccc(O)cc1)NC(=O)[C@H](CC(C)C)NC(=O)[C@H](CC(=O)O)NC(=O)[C@H](CCCNC(=N)N)NC(=O)[C@H](CC(C)C)NC(=O)[C@H](CCCCN)NC(=O)[C@H](CCC(=O)O)NC(=O)[C@H](Cc1ccccc1)NC(=O)[C@@H](NC(=O)[C@H](CCC(=O)O)NC(=O)[C@H](CCCCN)NC(=O)[C@H](CC(C)C)NC(=O)[C@H](Cc1ccc(O)cc1)NC(=O)[C@@H](N)CC(=O)O)C(C)C)[C@@H](C)O)C(=O)N[C@@H](CO)C(=O)N[C@H](C(=O)N[C@@H](Cc1ccc(O)cc1)C(=O)N[C@H](C(=O)NCC(=O)N[C@H](C(=O)N[C@@H](Cc1ccccc1)C(=O)N[C@H](C(=O)N[C@@H](CC(=O)O)C(=O)N[C@@H](CCC(N)=O)C(=O)N[C@H](C(=O)N[C@@H](CC(C)C)C(=O)N[C@@H](CO)C(=O)N[C@H](C(=O)N[C@@H](CC(C)C)C(=O)N[C@@H](CCCCN)C(=O)NCC(=O)N[C@@H](CCC(=O)O)C(=O)N[C@@H](CCC(=O)O)C(N)=O)C(C)C)C(C)C)[C@@H](C)O)[C@@H](C)CC)[C@@H](C)O)[C@@H](C)O) [Delta6-NH]
apoC-III displacement in VLDL [3]: capable of displacing apoC-III | plasma TG (apoC-II knockout mice): significant reduction of plasma TG

DYLKEVFEKLRDLYEKFTPALSTYTGIFTDQVLSVLKGEE [Delta6PL]
LPL activation (bovine LPL [2]): activated LPL in vitro

DYLKEVFEKLRDLYEKKC18TAAnLSTYTGIFTDQVLSVLKGEE (DYLKEVFEKLRDLYEKK(Stearoyl)TAA[Nle]STYTGIFTDQVLSVLKGEE) [Delta6b-A]
apoC-III displacement in VLDL [3]: capable of displacing apoC-III | plasma TG (apoC-II knockout mice): significant reduction of plasma TG

DYLKEVFEKLRDLYEKKC18TPAnLSTYTGIFTDQVLSVLKGEE (DYLKEVFEKLRDLYEKK(Stearoyl)TPA[Nle]STYTGIFTDQVLSVLKGEE) [Delta6b-P]
apoC-III displacement in VLDL [3]: capable of displacing apoC-III | plasma TG (apoC-II knockout mice): significant reduction of plasma TG

Tyloxapol [Triton, reference compound]
increase of serum TG level (wild-type mice): more than 1000 fold
